Target: A/England/12/64
Type: binding, Influenza Viren
Conditions: read-out: Affinität der Bindung an Virus, Kaff

How did the Kd turn out when “Poly-N-(2-Hydroxyethyl)-acrylamid mit 20% mol. 6SLN [6SLN-PAA]” was run?
The Kd was 100 nM.

Source: patent publication EP0863769B1 (priority 1996, dated 1998)
